Laboratory results taken from PMC4598760 (Biomolecules, 2015).
Where two headings read alike, the source gives them in different places.

How the values were obtained:
[1] = system: hemagglutinin (HA) on immobilized influenza virus A/Mem71 (H3N1); type: binding, influenza A virus A/Memphis/1971
[2] = system: influenza virus A/Mem71 (H3N1); details: for Kd: read-out: K*d (apparent)
[3] = system: A/Udorn/307/1972 (A/Udorn72, H3N2)
[4] = system: A/Philippines/2/82/X-79 (A/Philips, H3N2)

For `CC(=O)N[C@H]1[C@H]([C@H](O)[C@H](O)CO)O[C@@](O[C@H]2[C@@H](O)[C@@H](CO)O[C@@H](O[C@H]3[C@H](O)[C@@H](O)C(O)O[C@@H]3CO)[C@@H]2O)(C(=O)O)C[C@@H]1O` (stereo partly drawn) [α2-3 sialyllactose (OS-11), α2-3-sialyllactose], the Kd [1] was 26.3 mM, the Koff [1] was 0.0736 s⁻¹ and the Kd ([1]; monovalent, 288 K) was 2.6 mM. It also gave a Kd ([1]; monovalent, 293 K) of 6.4 mM and a Kd ([1]; monovalent, 296 K) of 18.8 mM.
`CC(=O)N[C@H]1[C@H]([C@H](O)[C@H](O)CO)O[C@@](OC[C@H]2O[C@@H](O[C@H]3[C@H](O)[C@@H](O)C(O)O[C@@H]3CO)[C@H](O)[C@@H](O)[C@H]2O)(C(=O)O)C[C@@H]1O` (stereo partly drawn) [α2-6 sialyllactose (OS-21), α2-6-sialyllactose] gave a Kd [1] of 47.6 mM, a Koff [1] of 0.128 s⁻¹ and a Kd ([1]; monovalent, 288 K) of 6.8 mM. For the same compound, the Kd ([1]; monovalent, 293 K) was 11.2 mM and the Kd ([1]; monovalent, 296 K) was 23.8 mM.
Kdnα2-6Galβ1-4Glcβ-Biotin [OS-19] was tested, and the “virus binding to surface-bound glycan (in words)” value [2] was “does not bind”.
For Neu5Acα2-3Galβ1-4Glcβ-Biotin [OS-11], the “K*off (apparent)” value [2] was 4.1e-06 s⁻¹, the “K*on (apparent)” value [2] was 7200 M⁻¹ s⁻¹ and the Kd [2] was 580 pM.
In the case of Neu5Acα2-6GalNAcα-Biotin [OS-18], the “virus binding to surface-bound glycan (in words)” value [2] is reported as “binds”.
In the case of Neu5Acα2-6Galβ1-4Glcβ-Biotin [OS-21], the “K*off (apparent)” value [2] is reported as less than 3e-06 s⁻¹, the “K*on (apparent)” value [2] is reported as 7000 M⁻¹ s⁻¹ and the Kd [2] is reported as less than 430 pM.
For Neu5Gcα2-6Galβ1-4Glcβ-Biotin [OS-20], the “virus binding to surface-bound glycan (in words)” value [3] was “binds” and the “virus binding to surface-bound glycan (in words)” value [4] was “do not”.
